In PubChem BioAssay AID248 (DTP/NCI, 2004):
Values joined by “and” are separate entries in the source; they are usually repeats but may differ in a detail not shown here. Equal values may be shown once. Inconclusive results and toxic doses are left out. Cut-off read from the data, not from the text of the source: active = T/C of 150% or more; inactive = T/C below 125%.

System: L1210 leukemia ip in BDF1 mice, survival T/C
Experiment: NCI In Vivo Anticancer Drug Screen. Data for tumor model L1210 Leukemia (intraperitoneal) in B6D2F1 (BDF1) mice
Details: endpoint: mean survival time, higher = longer survival
How it was run: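 Transplantable tumor model; survival measured in treated vs vehicle control mice. Value = treated/control.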

[1] = dose: 100.0 mg/kg/injection, schedule: Q04DX003 (ip), vehicle: saline with Tween-80
[2] = dose: 200.0 mg/kg/injection, schedule: Q04DX003 (ip), vehicle: saline with Tween-80
[3] = dose: 400.0 mg/kg/injection, schedule: Q04DX003 (ip), vehicle: saline with Tween-80
[4] = dose: 100.0 mg/kg/injection, schedule: Q01DX009 (ip), vehicle: Klucel (hydroxypropylcellulose) (HPC)
[5] = dose: 100.0 mg/kg/injection, schedule: Q04DX003 (ip), vehicle: Klucel (hydroxypropylcellulose) (HPC)
[6] = dose: 200.0 mg/kg/injection, schedule: Q01DX009 (ip), vehicle: Klucel (hydroxypropylcellulose) (HPC)
[7] = dose: 200.0 mg/kg/injection, schedule: Q04DX003 (ip), vehicle: Klucel (hydroxypropylcellulose) (HPC)
[8] = dose: 400.0 mg/kg/injection, schedule: Q01DX009 (ip), vehicle: Klucel (hydroxypropylcellulose) (HPC)
[9] = dose: 400.0 mg/kg/injection, schedule: Q04DX003 (ip), vehicle: Klucel (hydroxypropylcellulose) (HPC)
[10] = dose: 100.0 mg/kg/injection, schedule: Q04DX002 (ip), vehicle: saline
[11] = dose: 200.0 mg/kg/injection, schedule: Q04DX002 (ip), vehicle: saline
[12] = dose: 100.0 mg/kg/injection, schedule: Q01DX009 (ip), vehicle: saline
[13] = dose: 100.0 mg/kg/injection, schedule: Q04DX003 (ip), vehicle: saline
[14] = dose: 200.0 mg/kg/injection, schedule: Q01DX009 (ip), vehicle: saline
[15] = dose: 200.0 mg/kg/injection, schedule: Q04DX003 (ip), vehicle: saline
[16] = dose: 100.0 mg/kg/injection, schedule: Q01DX001 (ip), vehicle: saline
[17] = dose: 200.0 mg/kg/injection, schedule: Q01DX001 (ip), vehicle: saline
[18] = dose: 25.0 mg/kg/injection, schedule: Q04DX003 (ip), vehicle: saline
[19] = dose: 50.0 mg/kg/injection, schedule: Q01DX009 (ip), vehicle: saline
[20] = dose: 50.0 mg/kg/injection, schedule: Q04DX003 (ip), vehicle: saline

Measured: T/C

O=C(NC(=S)Nc1cc(Cl)ccc1Cl)c1ccc(Cl)cc1Cl
inactive: dose: 100.0 mg/kg/injection, schedule: Q01DX001 (ip), vehicle: saline with Tween-80 92 % of control | dose: 100.0 mg/kg/injection, schedule: Q01DX009 (ip), vehicle: saline with Tween-80 94 % of control and 97 % of control | dose: 100.0 mg/kg/injection, schedule: Q04DX002 (ip), vehicle: saline with Tween-80 87 % of control and 90 % of control | [1] 97 % of control | dose: 200.0 mg/kg/injection, schedule: Q01DX001 (ip), vehicle: saline with Tween-80 94 % of control | dose: 200.0 mg/kg/injection, schedule: Q01DX009 (ip), vehicle: saline with Tween-80 93 % of control and 97 % of control | dose: 200.0 mg/kg/injection, schedule: Q04DX002 (ip), vehicle: saline with Tween-80 97 % of control and 87 % of control | [2] 92 % of control | dose: 400.0 mg/kg/injection, schedule: Q01DX001 (ip), vehicle: saline with Tween-80 94 % of control | dose: 400.0 mg/kg/injection, schedule: Q01DX009 (ip), vehicle: saline with Tween-80 103 % of control and 105 % of control | dose: 400.0 mg/kg/injection, schedule: Q04DX002 (ip), vehicle: saline with Tween-80 93 % of control and 101 % of control | [3] 95 % of control

Brc1ccccc1-c1ccccc1-c1ccccc1
inactive: [1] 92 % of control | [2] 100 % of control | [3] 92 % of control

O=C(Nc1ccccc1C(F)(F)F)C(c1ccccc1)c1ccccc1
inactive: [4] 93 % of control | [5] 96 % of control | [6] 88 % of control | [7] 96 % of control | [8] 90 % of control | [9] 95 % of control

Cc1c(NC(=O)CCl)c(=O)n(-c2ccccc2)n1C
inactive: [4] 98 % of control | [5] 100 % of control | [6] 94 % of control | [7] 96 % of control | [9] 95 % of control

O/N=C(/C=C(/C(=C/C(=N/O)c1ccccc1)c1ccccc1)c1ccccc1)c1ccccc1
inactive: dose: 50.0 mg/kg/injection, schedule: Q01DX009 (ip), vehicle: Klucel (hydroxypropylcellulose) (HPC) 102 % of control | [4] 94 % of control | [6] 87 % of control

CCCCCCCC(=O)N1CCCC(C)C1 (stereo not drawn)
inactive: [10] 96 % of control | [11] 114 % of control | dose: 400.0 mg/kg/injection, schedule: Q04DX002 (ip), vehicle: saline 114 % of control

CN(C)/C=N\c1ncnc2c1ccn2C1OC(CO)C(O)C1O (stereo not drawn)
inactive: dose: 1.56 mg/kg/injection, schedule: Q01DX005 (ip), vehicle: saline 104 % of control | dose: 1.56 mg/kg/injection, schedule: Q01DX009 (ip), vehicle: saline 109 % of control | dose: 3.12 mg/kg/injection, schedule: Q01DX005 (ip), vehicle: saline 116 % of control | dose: 3.12 mg/kg/injection, schedule: Q01DX009 (ip), vehicle: saline 114 % of control | dose: 6.25 mg/kg/injection, schedule: Q01DX005 (ip), vehicle: saline 93 % of control | dose: 6.25 mg/kg/injection, schedule: Q01DX009 (ip), vehicle: saline 88 % of control

CC(=O)Nc1ccn(CC(=O)c2cccs2)c(=O)n1
inactive: [12] 96 % of control | [13] 95 % of control | [14] 94 % of control | [15] 101 % of control | dose: 400.0 mg/kg/injection, schedule: Q01DX009 (ip), vehicle: saline 89 % of control | dose: 400.0 mg/kg/injection, schedule: Q04DX003 (ip), vehicle: saline 110 % of control

CC(C)N1CCOC1c1ccccc1 (stereo not drawn)
inactive: dose: 50.0 mg/kg/injection, schedule: Q01DX009 (ip), vehicle: saline sonified 105 % of control | dose: 100.0 mg/kg/injection, schedule: Q01DX009 (ip), vehicle: saline sonified 105 % of control | [13] 100 % of control | dose: 200.0 mg/kg/injection, schedule: Q01DX009 (ip), vehicle: saline sonified 100 % of control | [15] 96 % of control

Clc1ccc(/C=N/Nc2c3ccccc3nc3ccccc23)c(Cl)c1
inactive: [16] 92 % of control | [17] 97 % of control | dose: 400.0 mg/kg/injection, schedule: Q01DX001 (ip), vehicle: saline 100 % of control

CC(C)OC(=S)SCC(=O)O
inactive: [1] 97 % of control | [2] 93 % of control | [3] 93 % of control

O=C(Nc1cccc(C2=NCCN2)c1)c1ccc(OCCCOc2ccc(C(=O)Nc3cccc(C4=NCCN4)c3)cc2)cc1
inactive: dose: 9.0 mg/kg/injection, schedule: Q01DX Z (ip), vehicle: saline 113 % of control | dose: 12.0 mg/kg/injection, schedule: Q01DX Z (ip), vehicle: water 107 % of control | dose: 13.0 mg/kg/injection, schedule: Q01DX Z (ip), vehicle: saline 107 % of control | dose: 20.0 mg/kg/injection, schedule: Q01DX Z (ip), vehicle: saline 112 % of control | dose: 25.0 mg/kg/injection, schedule: Q01DX Z (ip), vehicle: water 111 % of control

CC(C)(C)NC(=O)C1C2C=CC(C2)C1C(=O)NC(C)(C)C (stereo not drawn)
inactive: [1] 96 % of control | [2] 91 % of control | [3] 91 % of control

C[N+](C)(C)CCOC(=O)c1cc(CBr)cc(CBr)c1
inactive: dose: 25.0 mg/kg/injection, schedule: Q01DX009 (ip), vehicle: saline 101 % of control | [18] 98 % of control | [19] 95 % of control | [20] 100 % of control | [13] 102 % of control

N#Cc1nc2ccccc2nc1C#N
inactive: dose: 12.5 mg/kg/injection, schedule: Q01DX009 (ip), vehicle: Klucel (hydroxypropylcellulose) (HPC) 102 % of control | dose: 12.5 mg/kg/injection, schedule: Q04DX003 (ip), vehicle: Klucel (hydroxypropylcellulose) (HPC) 97 % of control | dose: 25.0 mg/kg/injection, schedule: Q01DX009 (ip), vehicle: Klucel (hydroxypropylcellulose) (HPC) 102 % of control | dose: 25.0 mg/kg/injection, schedule: Q04DX003 (ip), vehicle: Klucel (hydroxypropylcellulose) (HPC) 88 % of control

N#Cc1cccc(C(Br)S(=O)(=O)c2ccccc2)c1 (stereo not drawn)
inactive: dose: 100.0 mg/kg/injection, schedule: Q04DX002 (ip), vehicle: Klucel (hydroxypropylcellulose) (HPC) 116 % of control | dose: 200.0 mg/kg/injection, schedule: Q04DX002 (ip), vehicle: Klucel (hydroxypropylcellulose) (HPC) 111 % of control | dose: 400.0 mg/kg/injection, schedule: Q04DX002 (ip), vehicle: Klucel (hydroxypropylcellulose) (HPC) 90 % of control

COC(=O)C(=O)OC(=O)C(=O)OC
inactive: [18] 104 % of control | [20] 120 % of control | [13] 92 % of control

COC(=O)CCCCCCCCCC(=O)OC
inactive: dose: 100.0 mg/kg/injection, schedule: Q01DX001 (ip), vehicle: Klucel (hydroxypropylcellulose) (HPC) 100 % of control | [4] 97 % of control | dose: 200.0 mg/kg/injection, schedule: Q01DX001 (ip), vehicle: Klucel (hydroxypropylcellulose) (HPC) 101 % of control | [6] 96 % of control | dose: 400.0 mg/kg/injection, schedule: Q01DX001 (ip), vehicle: Klucel (hydroxypropylcellulose) (HPC) 95 % of control | [8] 94 % of control

NCCCOc1ccc([N+](=O)[O-])cc1
inactive: dose: 50.0 mg/kg/injection, schedule: Q01DX001 (ip), vehicle: saline 100 % of control | [19] 104 % of control and 109 % of control | [20] 95 % of control | [16] 101 % of control | [12] 102 % of control and 107 % of control | [10] 96 % of control and 89 % of control | [13] 114 % of control | [17] 100 % of control | [14] 100 % of control | [11] 93 % of control and 96 % of control | [15] 106 % of control

COc1cc2ccc3c(c2cc1OC)C(=O)CNC3C (stereo not drawn)
inactive: dose: 12.5 mg/kg/injection, schedule: Q04DX003 (ip), vehicle: saline 100 % of control | dose: 50.0 mg/kg/injection, schedule: Q04DX003 (ip), vehicle: Klucel (hydroxypropylcellulose) (HPC) 114 % of control | [5] 98 % of control | [7] 106 % of control | [9] 101 % of control

CCCCCCN(CCCCCC)CCC(=O)c1ccc2cc(Br)c3ccccc3c2c1
inactive: dose: 13.3 mg/kg/injection, schedule: Q01DX Z (ip), vehicle: methylcellulose (MC) 92 % of control | dose: 20.0 mg/kg/injection, schedule: Q01DX Z (ip), vehicle: methylcellulose (MC) 86 % of control | dose: 30.0 mg/kg/injection, schedule: Q01DX Z (ip), vehicle: methylcellulose (MC) 92 % of control
